The nature of series [1]: Hydrolytic (chemical) stability in Tris-HCl buffer pH 7.4. It counts as physicochemical. To be noted: 50 mM Tris-HCl buffer pH 7.4, incubation 30 min, without microsomes. Here is the method: (§1) For all 43 compounds, a first evaluation of their chemical and metabolic stabilities toward hydrolysis was performed by incubating them in buffer under physiological conditions (50 mM Tris-HCl, pH 7.4) and in mouse liver microsomes (Table 1). This model was chosen because, similar to the human liver, both of the carboxylesterase isoforms are present. […] A more interesting trend was instead possible to observe with benzoic acids.
(§2) Hydrolytic stability in MLM and HLM
(§3) The standard incubation mixture (200 µL final volume) was carried out in a 50 mM TRIS-HCl buffer (pH 7.4) containing 150 mM KCl, tween 80 as cosolvent (0.8 mg/mg protein), and the substrate (10 μM). After pre-equilibration of the mixture, an appropriate volume of MLM or HLM suspension was added to give a final protein concentration of 1.0 mg/mL. The mixture was shaken for 30 minutes at 37 °C. Control incubations were carried out without the presence or microsomes or in pure acetonitrile. Each incubation was stopped by the addition of 200 µL ice-cold acetonitrile, vortexed and centrifuged at 13000 rpm for 5 min. The supernatants were analyzed by LC-HRMS. […]

Series [2] is described as follows: Hydrolytic stability in mouse liver microsomes (MLM). It counts as in vitro ADME. To be noted: 30 min; for Residual substrate percentage, MLM: mouse liver microsomes 1.0 mg/mL protein, substrate 10 μM, 37 °C. As for the experimental part: as §1, §2, §3
For orientation: Liver microsomes are a subcellular fraction often used to study metabolism.

In the case of `Cc1ccccc1C(OC(=O)c1ccccc1)C(=O)NC(C)(C)C` (centres unmarked) [Compound 56], the “Residual substrate percentage, buffer” value in series [1] is on record as over 99%. The “Residual substrate percentage, MLM” value in series [2] was under 1%.

As to `CC(C)C(OC(=O)c1ccccc1)C(=O)NC(C)(C)C` (centres unmarked) [Compound 59], the “Residual substrate percentage, buffer” value in series [1] turned out to be 94%. The “Residual substrate percentage, MLM” value in series [2] is under 1%.

As to `CCCCCCC(OC(=O)c1ccccc1)C(=O)NC(C)(C)C` (centres unmarked) [Compound 60], the “Residual substrate percentage, buffer” value in series [1] was 93%. In series [2], the “Residual substrate percentage, MLM” value is recorded as under 1%.

For `CC(C)(C)NC(=O)COC(=O)c1ccccc1` [Compound 61], the “Residual substrate percentage, buffer” value in series [1] is on record as over 99%. Further, the “Residual substrate percentage, MLM” value in series [2] was under 1%.

As to `CC(C)(C)NC(=O)C(OC(=O)c1ccccc1)c1ccccc1` (centres unmarked) [Compound 62], the “Residual substrate percentage, buffer” value in series [1] is recorded as over 99%. Moreover, the “Residual substrate percentage, MLM” value in series [2] is on record as under 1%.

Consider `COc1ccc(C(OC(=O)c2ccccc2)C(=O)NC(C)(C)C)cc1` (centres unmarked) [Compound 63], for which the “Residual substrate percentage, buffer” value in series [1] worked out at 92%. Further, the “Residual substrate percentage, MLM” value in series [2] was under 1%.

On to `COc1ccc(C(=O)OC(C(=O)NC(C)(C)C)C(C)C)cc1` (centres unmarked) [Compound 66], for which the “Residual substrate percentage, buffer” value in series [1] turned out to be 92%. In addition, the “Residual substrate percentage, MLM” value in series [2] is reported as under 1%.

As to `Cc1ccc(C(=O)OC(C(=O)NC(C)(C)C)C(C)C)cc1` (centres unmarked) [Compound 67], in series [1], the “Residual substrate percentage, buffer” value stood at 94%. Moreover, in series [2], the “Residual substrate percentage, MLM” value is reported as under 1%.

As for `CC(C)C(OC(=O)c1ccc(Cl)cc1)C(=O)NC(C)(C)C` (centres unmarked) [Compound 68], the “Residual substrate percentage, buffer” value in series [1] was over 99%. For the same compound, the “Residual substrate percentage, MLM” value in series [2] is on record as under 1%.

`CC(C)C(OC(=O)c1ccc([N+](=O)[O-])cc1)C(=O)NC(C)(C)C` (centres unmarked) [Compound 69]: in series [1], the “Residual substrate percentage, buffer” value is over 99%. The “Residual substrate percentage, MLM” value in series [2] was under 1%.

On to `CC(=O)OC(C(=O)NC(C)(C)C)C(C)C` (centres unmarked) [Compound 70], for which the “Residual substrate percentage, buffer” value in series [1] was 94%. Further, in series [2], the “Residual substrate percentage, MLM” value is recorded as 5% and the “Hydrolysis of the ester group in mouse liver microsomes (in words)” value (shortened to “Hydrolysis of the ester group”) is reported as “easily hydrolyzed”.

Regarding `CCCCCC(=O)OC(C(=O)NC(C)(C)C)C(C)C` (centres unmarked) [Compound 71], the “Residual substrate percentage, buffer” value in series [1] was found to be 91%. For the same compound, in series [2], the “Residual substrate percentage, MLM” value is listed as under 1% and the “Hydrolysis of the ester group” value is on record as “easily hydrolyzed”.

In the case of `CC(C)(C)NC(=O)C(OC(=O)c1ccccc1)c1ccc(Cl)cc1` (centres unmarked) [Compound 72], the “Residual substrate percentage, buffer” value in series [1] is given as over 99%. For the same compound, in series [2], the “Residual substrate percentage, MLM” value is recorded as under 1% and the “Hydrolysis of the ester group” value is “rapidly cleaved”.

`CC(C)C(OC(=O)Cc1ccccc1)C(=O)NC(C)(C)C` (centres unmarked) [Compound 74, 1-(tert-butylamino)-3-methyl-1-oxobutan-2-yl 2-phenylacetate]: the “Residual substrate percentage, buffer” value in series [1] is listed as over 99%. In series [2], the “Residual substrate percentage, MLM” value came out at 17% and the “Hydrolysis of the ester group” value is reported as “easily hydrolyzed”.

In the case of `CC(C)C(OC(=O)CCCCCc1ccccc1)C(=O)NC(C)(C)C` (centres unmarked) [Compound 75, 1-(tert-butylamino)-3-methyl-1-oxobutan-2-yl 6-phenylhexanoate], the “Residual substrate percentage, buffer” value in series [1] is given as over 99%. In addition, in series [2], the “Residual substrate percentage, MLM” value was under 1% and the “Hydrolysis of the ester group” value is recorded as “easily hydrolyzed”.

Regarding `CC(C)C(OC(=O)COc1ccccc1)C(=O)NC(C)(C)C` (centres unmarked) [Compound 76, 1-(tert-butylamino)-3-methyl-1-oxobutan-2-yl 2-phenoxyacetate], the “Residual substrate percentage, buffer” value in series [1] is over 99%. Moreover, in series [2], the “Residual substrate percentage, MLM” value was under 1% and the “Hydrolysis of the ester group” value is “completely unstable”.

In the case of `CCCCCCCCCCCC(=O)OC(C(=O)NC(C)(C)C)C(C)C` (centres unmarked) [Compound 77, 1-(tert-butylamino)-3-methyl-1-oxobutan-2-yl dodecanoate], the “Residual substrate percentage, buffer” value in series [1] was 77%. Further, in series [2], the “Residual substrate percentage, MLM” value stood at 7% and the “Hydrolysis of the ester group” value is “easily hydrolyzed”.

Take `Cc1cccc(C)c1C(=O)OCC(=O)NC(C)(C)C` [Compound 79]: the “Residual substrate percentage, buffer” value in series [1] was found to be 95%. Also, the “Residual substrate percentage, MLM” value in series [2] was 94%.

As to `Cc1ccccc1C(=O)OCC(=O)NC(C)(C)C` [Compound 81], the “Residual substrate percentage, buffer” value in series [1] is over 99%. In series [2], the “Residual substrate percentage, MLM” value is listed as under 1% and the “Hydrolysis of the ester group” value is recorded as “the hydrolysis of the ester was complete”.

`CC(C)(C)NC(=O)COC(=O)Cc1c(Cl)cccc1Cl` [Compound 82]: the “Residual substrate percentage, buffer” value in series [1] is listed as over 99%. Also, in series [2], the “Residual substrate percentage, MLM” value is listed as 1% and the “Hydrolysis of the ester group” value is “easily hydrolyzed”.

Consider `CC(C)(C)NC(=O)COC(=O)C(=O)c1ccccc1` [Compound 83], for which the “Residual substrate percentage, buffer” value in series [1] was under 1%. In series [2], the “Residual substrate percentage, MLM” value is listed as under 1% and the “Hydrolysis of the ester group” value is reported as “completely unstable”.

Regarding `CC(C)(C)NC(=O)COC(=O)c1c(F)cccc1F` [Compound 85], in series [1], the “Residual substrate percentage, buffer” value is recorded as over 99%. In series [2], the “Residual substrate percentage, MLM” value is under 1% and the “Hydrolysis of the ester group” value is given as “completely hydrolyzed”.

On to `CC(C)(C)NC(=O)COC(=O)c1ccccc1Br` [Compound 86], for which, in series [1], the “Residual substrate percentage, buffer” value was over 99%. Also, in series [2], the “Residual substrate percentage, MLM” value was under 1% and the “Hydrolysis of the ester group” value is “the hydrolysis of the ester was complete”.

As to `CC(C)(C)NC(=O)COC(=O)c1ccccc1I` [Compound 87], the “Residual substrate percentage, buffer” value in series [1] is on record as over 99%. Also, in series [2], the “Residual substrate percentage, MLM” value is reported as under 1% and the “Hydrolysis of the ester group” value is recorded as “the hydrolysis of the ester was complete”.

`CC(C)(C)NC(=O)COC(=O)c1ccccc1-c1ccccc1` [Compound 88]: the “Residual substrate percentage, buffer” value in series [1] is recorded as over 99%.

In the case of `CC(C)(C)NC(=O)COC(=O)c1ccccc1Cl` [Compound 90], the “Residual substrate percentage, buffer” value in series [1] is over 99%. Further, in series [2], the “Residual substrate percentage, MLM” value is reported as under 1% and the “Hydrolysis of the ester group” value is given as “the hydrolysis of the ester was complete”.

For the compound `CC(C)(C)NC(=O)COC(=O)C(C)(C)c1ccc(Br)cc1` [Compound 91], in series [1], the “Residual substrate percentage, buffer” value is recorded as over 99%. For the same compound, in series [2], the “Residual substrate percentage, MLM” value is reported as 12% and the “Hydrolysis of the ester group” value was “easily hydrolyzed”.

For `CCC(C(=O)OCC(=O)NC(C)(C)C)c1ccccc1` (centres unmarked) [Compound 92], the “Residual substrate percentage, buffer” value in series [1] was over 99%. In series [2], the “Residual substrate percentage, MLM” value is on record as under 1% and the “Hydrolysis of the ester group” value was “easily hydrolyzed”.

As to `Cc1cccc(C)c1C(=O)OC(C(=O)NC(C)(C)C)C(C)C` (centres unmarked) [Compound 93], the “Residual substrate percentage, buffer” value in series [1] is listed as over 99%. Further, the “Residual substrate percentage, MLM” value in series [2] is given as over 99%.

On to `Cc1cccc(C)c1C(=O)OCC(=O)NCc1ccccc1` [Compound 94], for which the “Residual substrate percentage, buffer” value in series [1] is over 99%. In addition, the “Residual substrate percentage, MLM” value in series [2] is reported as over 99%.

Turning to `CC(C)(C)NC(=O)COC(=O)c1c(Cl)cccc1Cl` [Compound 95], the “Residual substrate percentage, buffer” value in series [1] is over 99%. Besides, the “Residual substrate percentage, MLM” value in series [2] amounted to 78%.

The values above are taken from publication PMC9743426, “Expanding the Chemical Space of Drug-like Passerini Compounds: Can α-Acyloxy Carboxamides Be Considered Hard Drugs?” (ACS Medicinal Chemistry Letters, 2022).
